Results published in patent publication US20230110998A1, “Compositions and Methods for Treatment of Cytokine Storm and Cytokine Release Syndrome” (Yinuoke Medicine Science Technology Company Ltd., priority 2020, published 2023).

Tests used:
LPS-induced CRS [1] = assay: Survival of mice with LPS-induced CRS; assay type: in vivo, BALB/c mice; conditions: 0.2 mg LPS i.p.
Procedure: 8-week-old female BALB/c mice were used for these studies. […] The mice were challenged with 0.2 mg LPS (Sigma Cat. No. L2630) dissolved in 0.1 mL PBS via intraperitoneal injection. The mice were monitored for health condition and survival for a minimum of seven days. […]

LPS-induced CRS [2] = assay: Body weight loss caused by low-dose LPS-induced CRS; assay type: in vivo, BALB/c mice; conditions: 0.05 mg LPS i.p.; 0.3 mg (15 mg/kg) oral; next day; compared with aspirin, p=0.0267
Procedure: 8-week-old female BALB/c mice were used for these studies. The mice were challenged with 0.05 mg LPS (Sigma Cat. No. L2630) via intraperitoneal injection. Body weight was measured before LPS challenge and the next day after the challenge.
Within 2 minutes of LPS injection, test compound (R)-ketorolac (0.3 mg, corresponding to 15 mg/kg), aspirin (0.3 mg, corresponding to 15 mg/kg), or control vehicle (PBS) was orally administered.

COX1 = COX1 (Homo sapiens, UniProt P23219); conditions: no test described; cited from earlier work
COX2 = target: T1, COX2 (Homo sapiens, UniProt P35354); conditions: no test described; cited from earlier work
T1 sequence (P35354 18-604): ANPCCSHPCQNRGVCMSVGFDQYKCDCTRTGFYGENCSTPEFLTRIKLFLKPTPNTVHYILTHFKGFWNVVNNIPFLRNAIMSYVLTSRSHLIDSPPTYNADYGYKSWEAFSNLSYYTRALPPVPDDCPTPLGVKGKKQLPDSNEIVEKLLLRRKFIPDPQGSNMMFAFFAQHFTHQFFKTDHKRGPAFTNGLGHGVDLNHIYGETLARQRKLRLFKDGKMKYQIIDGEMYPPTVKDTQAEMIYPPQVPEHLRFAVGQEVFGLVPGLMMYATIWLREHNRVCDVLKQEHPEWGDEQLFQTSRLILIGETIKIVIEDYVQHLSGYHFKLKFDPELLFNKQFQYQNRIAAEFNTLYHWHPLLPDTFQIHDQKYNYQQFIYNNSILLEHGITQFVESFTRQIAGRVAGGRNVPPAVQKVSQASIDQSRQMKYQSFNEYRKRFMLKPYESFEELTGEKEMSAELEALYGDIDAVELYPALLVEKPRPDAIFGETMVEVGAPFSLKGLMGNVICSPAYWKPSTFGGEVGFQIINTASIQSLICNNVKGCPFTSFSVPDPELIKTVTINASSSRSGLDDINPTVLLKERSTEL

[3] = tested on: C26 tumor cell-induced cytokine storm; assay: Tumor-induced cytokine storm model, serum cytokines (Mouse-Cytokine-32-Plex assay); conditions: gavage 0.2 mg daily for six days, serum on day 7, compared to PBS controls
Procedure: Cytokine storm inducing C26 tumor cells were cultured in Advanced RPMI 1640 medium supplied with 5% fetal bovine serum and 1% penicillin/streptomycin and maintained in a 5% CO2, 37° C. humidified incubator. Tumor cells with viability of >90% were chosen for the study. Viable tumor cells (1 × 10^6 cells) were re-suspended in 100 µL of PBS and subcutaneously injected into the left flank of mice. All procedures were performed in laminar flow hood following sterile techniques.
6-8 week BALB/c male and female mice were used for these studies. Following tumor inoculation, the animals were returned to the cage. The mice were monitored for the appearance of palpable tumor and cytokine storm development by observing health condition change and testing serum cytokines with Mouse-Cytokine-32-Plex assay.
2-4 mice were included in each experimental group. On day 7, mouse blood samples were collected and allowed to clot for one hour at room temperature. The samples were then centrifuged for 15 min at 3,000 rpm (1500 × g) at 4° C. Thirty microliters of serum per treatment animal were assessed for cytokine profiles using a Mouse-Cytokine-32-Plex assay (Eve Technologies Corporation, Calgary, AB, Canada).

IL-6 = assay: Serum IL-6 levels in LPS-induced CRS; assay type: in vivo, BALB/c mice; conditions: 50 µg LPS i.p.; 10 mg/kg single i.p. injection; serum 2 hours after challenge; versus PBS, p=0.0023
Procedure: 8-week-old male BALB/c mice were used for these studies. The mice were challenged with 50 µg LPS (Sigma Cat. No. L2630) dissolved in 0.1 mL PBS, a dosage designed to ensure all animals survived the challenge, via intraperitoneal injection. Mouse serum was collected 2 hours after the challenge, and IL-6 was measured with the Mouse Il-6 Flex Set (BD Biosciences Cat. No. 558301).
Within 2 minutes of the LPS injection, test compound ketorolac (racemic mixture) or control vehicle (PBS) was administered at 10 mg per kg body weight by single intraperitoneal injection. 5 mice were included per experimental group.

LPS-induced CRS [4] = assay: Acute diarrhea caused by high-dose LPS-induced CRS; assay type: in vivo, BALB/c mice; conditions: LPS 15 mg/kg i.p.
Procedure: 8-10-week-old female BALB/c mice were used for these studies. The mice were challenged with LPS at 15 mg per kg body weight, a dosage which had been empirically determined to induce diarrhea in 100% of tested subjects, via intraperitoneal injection. The mice were monitored for diarrhea symptoms, with diarrhea defined by the presence of watery stools 6 hours after treatment. Within 2 minutes of the LPS injection, test compound ketorolac (racemic mixture, suspended in PBS) or control vehicle (PBS) was administered at 0.1 mg (corresponding to 5 mg/kg) by single intraperitoneal injection.

Chain of COX1 (P23219 24-599): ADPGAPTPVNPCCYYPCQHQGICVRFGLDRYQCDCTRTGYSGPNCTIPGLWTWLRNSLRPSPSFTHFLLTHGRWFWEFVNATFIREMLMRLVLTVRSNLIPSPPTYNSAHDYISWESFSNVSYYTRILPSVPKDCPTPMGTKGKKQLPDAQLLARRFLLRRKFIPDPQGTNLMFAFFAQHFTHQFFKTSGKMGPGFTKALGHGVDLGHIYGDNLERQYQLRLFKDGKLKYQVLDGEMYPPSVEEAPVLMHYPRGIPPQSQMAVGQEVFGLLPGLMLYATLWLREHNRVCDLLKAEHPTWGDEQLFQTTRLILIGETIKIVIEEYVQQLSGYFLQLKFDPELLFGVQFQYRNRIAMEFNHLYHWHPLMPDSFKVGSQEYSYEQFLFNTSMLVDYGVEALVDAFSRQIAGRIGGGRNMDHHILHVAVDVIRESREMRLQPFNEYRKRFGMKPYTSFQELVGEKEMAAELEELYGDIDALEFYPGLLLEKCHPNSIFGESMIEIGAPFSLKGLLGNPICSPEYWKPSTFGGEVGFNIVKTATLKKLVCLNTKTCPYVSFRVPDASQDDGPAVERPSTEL

Row | SMILES | survival rate (LPS-induced CRS [1]; 10 mg/kg single dose, surviving mice / n=6) | survival rate (LPS-induced CRS [1]; 10 mg/kg, control 33.3%) | increase in survival rate (LPS-induced CRS [1]; 10 mg/kg, versus PBS control) | body weight loss (LPS-induced CRS [2]) | activity against COX1 (COX1) | activity against COX2 (COX2) | serum concentration of G-CSF [3] | serum concentration of GM-CSF [3] | serum concentration of IL-1β [3] | serum concentration of IL-6 [3] | serum concentration of IL-7 [3] | serum concentration of IL-10 [3] | serum concentration of LIF [3] | serum concentration of MCP-1 [3] | serum concentration of MIP-1A [3] | serum concentration of TNF-α [3] | serum IL-6 levels (IL-6) | decrease of acute diarrhea occurrence (LPS-induced CRS [4]; 0.1 mg (5 mg/kg) i.p., versus control) | diarrhea present, % of mice (LPS-induced CRS [4]; 0.1 mg (5 mg/kg) single i.p. injection, watery stools 6 hours after treatment, n=8, control 87.5%)
1 | O=C(c1ccccc1)c1ccc2n1CC[C@H]2C(=O)O [(R)-ketorolac] | ⅚ | 83.3% | 50% | significantly reduced body weight loss | not active | not active | effective in reducing | effective in reducing | effective in reducing | effective in reducing | effective in reducing | effective in reducing | effective in reducing | effective in reducing | effective in reducing | effective in reducing | – | – | –
2 | O=C(c1ccccc1)c1ccc2n1CCC2C(=O)O (racemic) [ketorolac] | – | – | – | – | – | – | – | – | – | – | – | – | – | – | – | – | decreased serum IL-6 levels | 65% | 12.5%
